Results taken from patent publication US7754772B2, “Nitrosated nonsteroidal antiinflammatory compounds, compositions and methods of use” (NicOx, S.A., priority 2002, dated 2010).

Columns and labels:
[1] = test system: Male Sprague Dawley rats, gastric hemorrhagic lesion; assay: rat gastric lesion test; conditions: rat fasted 24 hours, oral gavage, lesion score (summed length, mm) three hours after dosing; ratio relative to parent NSAID (Naproxen = 1)
Method: Male Sprague Dawley rats (Charles River Laboratories, Wilmington, Mass.) weighing 230-250 g were used for the experiments. The rats were housed with laboratory chow and water ad libitum prior to the study. The rats were fasted for 24 hours with free access to water and then dosed by oral gavage with vehicle or with test compounds given at a volume of 0.5 mL/100 g. […] Rats were euthanized by CO2 three hours after dosing. The stomachs were dissected along the greater curvature, washed with a directed stream of 0.9% saline and pinned open on a sylgard based petri dish for examination of the hemorrhagic lesion. Gastric lesion score was expressed in mm and calculated by summing the length of each lesion.

Row | melting point [°C] | Relative Activity Gastric Lesion [1] | SMILES
1 | 128 to 129 | – | COc1ccc2c(c1)c(CC(=O)OCC(=O)NCCO[N+](=O)[O-])c(C)n2C(=O)c1ccc(Cl)cc1 [Example 56, (N-(2-(Nitrooxy)ethyl)carbamoyl)methyl 2-(1-((4-chlorophenyl)carbonyl)-5-methoxy-2-methylindol-3-yl)acetate]
2 | 81 to 83 | – | O=C(COC(=O)Cc1ccccc1Nc1c(Cl)cccc1Cl)NCCO[N+](=O)[O-] [Example 57, (N-(2-(Nitrooxy)ethyl)carbamoyl)methyl 2-(2-((2,6-dichlorophenyl)amino)phenyl)acetate]
3 | 92 to 95 | – | COc1ccc2cc([C@H](C)C(=O)OCC(=O)COC(=O)Cc3ccc(CO[N+](=O)[O-])cc3)ccc2c1 [Example 30, 3-(2-(4-((Nitrooxy)methyl)phenyl)acetyloxy)-2-oxopropyl (2S)-2-(6-methoxy(2-naphthyl))propanoate]
4 | 71 to 73 | 0.03 | COc1ccc2cc([C@H](C)C(=O)OCC(=O)N(C)CC(=O)OCCO[N+](=O)[O-])ccc2c1 [Example 20, (N-Methyl-N-(((2-(nitrooxy)ethyl)oxycarbonyl)methyl)carbamoyl)methyl (2S)-2-(6-methoxy(2-naphthyl))propanoate]
5 | 41 to 43 | 0.19 | COc1ccc2cc([C@H](C)C(=O)OCC(=O)N(C)CC(=O)OCCCO[N+](=O)[O-])ccc2c1 [Example 21, (N-Methyl-N-(((3-(nitrooxy)propyl)oxycarbonyl)methyl)carbamoyl)methyl (2S)-2-(6-methoxy(2-naphthyl))propanoate]
6 | 80 to 81 | – | COc1ccc2cc([C@H](C)C(=O)OCC(=O)N(C)CCO[N+](=O)[O-])ccc2c1 [Example 17, (N-Methyl-N-(2-(nitrooxy)ethyl)carbamoyl)methyl (2S)-2-(6-methoxy(2-naphthyl))propanoate]
7 | 30 to 35 | – | COc1ccc2cc([C@H](C)C(=O)SCCCCO[N+](=O)[O-])ccc2c1 [Example 54, (2S)-2-(6-methoxy(2-naphthyl))-1-(4-(nitrooxy)butylthio)propan-1-one]
8 | 44 to 45 | – | COc1ccc2cc(C(C)C(=O)OCC(=O)OCCO[N+](=O)[O-])ccc2c1 (stereo not shown) [Example 23, ((2-(Nitrooxy)ethyl)oxycarbonyl)methyl 2-(6-methoxy-2-naphthyl)propanoate]
9 | 159 to 160 | – | COc1ccc2c(c1)c(CC(=O)O[C@H]1CO[C@H]3[C@H]1OC[C@H]3O[N+](=O)[O-])c(C)n2C(=O)c1ccc(Cl)cc1 [Example 46, (1S,2S,5S,6R)-6-(Nitrooxy)-4,8-dioxabicyclo(3.3.0)oct-2-yl 2-(1-((4 chlorophenyl)carbonyl)-5-methoxy-2-methylindol-3-yl)acetate]
10 | 92 to 95 | – | COc1ccc2cc([C@H](C)C(=O)OCCN(CCO[N+](=O)[O-])S(=O)(=O)c3ccc(C)cc3)ccc2c1 [Example 48, 2-(((4-Methylphenyl)sulfonyl)(2-(nitrooxy)ethyl)amino)ethyl (2S)-2-(6-methoxy(2-naphthyl))propanoate]
11 | 56 to 57 | 0.15 | COc1ccc2cc([C@H](C)C(=O)OCCOC(=O)NCCO[N+](=O)[O-])ccc2c1 [Example 14, 2-(N-(2-(Nitrooxy)ethyl)carbamoyloxy)ethyl (2S)-2-(6-methoxy(2-naphthyl))propanoate]
12 | 67 to 69 | 0.04 | COc1ccc2cc([C@H](C)C(=O)OCCOc3ccc(OCCO[N+](=O)[O-])cc3)ccc2c1 [Example 39, 2-(4-(2-(Nitrooxy)ethoxy)phenoxy)ethyl (2S)-2-(6-methoxy(2-naphthyl))propanoate]
13 | 60 to 61 | 0.25 | CCN(CCO[N+](=O)[O-])C(=O)COC(=O)[C@@H](C)c1ccc2cc(OC)ccc2c1 [Example 18, (N-Ethyl-N-(2-(nitrooxy)ethyl)carbamoyl)methyl (2S)-2-(6-methoxy(2-naphthyl))propanoate]
14 | 51 to 53 | – | COc1ccc2cc(C(C)C(=O)OCC(=O)NCCCO[N+](=O)[O-])ccc2c1 (stereo not shown) [Example 24, (N-(3-(Nitrooxy)propyl)carbamoyl)methyl 2-(6-methoxy-2-naphthyl)propanoate]
15 | 33 to 37 | 0.32 | COc1ccc2cc([C@H](C)C(=O)OCCSCCO[N+](=O)[O-])ccc2c1 [Example 1, 2-(2-(Nitrooxy)ethylthio)ethyl (2S)-2-(6-methoxy(2-naphthyl))propanoate]
16 | 105 to 107 | – | COc1ccc2cc([C@H](C)C(=O)OCC(=O)COC(=O)c3ccc(CO[N+](=O)[O-])cc3)ccc2c1 [Example 11, 3-(4-((Nitrooxy)methyl)phenylcarbonyloxy)-2-oxopropyl (2S)-2-(6-methoxy(2-naphthyl))propanoate]
17 | – | 0.06 | COc1ccc2cc([C@H](C)C(=O)Oc3ccc(C(=O)OCCO[N+](=O)[O-])cc3)ccc2c1 [Example 32, 4-((2-(Nitrooxy)ethyl)oxycarbonyl)phenyl (2S)-2-(6-methoxy(2-naphthyl))propanoate]
18 | 117 to 119 | – | COc1ccc2cc([C@H](C)C(=O)NNC(=O)CCCO[N+](=O)[O-])ccc2c1 [Example 41, N-((2S)-2-(6-Methoxy(2-naphthyl))propanoylamino)-4 (nitrooxy)butanamide]
19 | – | 1 | COc1ccc2cc([C@H](C)C(=O)O)ccc2c1 [Naproxen, (2S)-2-(6-methoxy(2-naphthyl))propanoic acid, reference compound]
20 | 79 to 81 | – | COc1ccc2cc([C@H](C)C(=O)OCC(=O)N(C)CC(=O)NCCO[N+](=O)[O-])ccc2c1 [Example 22, (N-Methyl-N-((N-(2-(nitrooxy)ethyl)carbamoyl)methyl)carbamoyl)methyl (2S)-2-(6-methoxy(2-naphthyl))propanoate]
21 | 55 to 58 | – | COc1ccc2cc([C@H](C)C(=O)OCCOC(=O)C(=O)OCCCO[N+](=O)[O-])ccc2c1 [Example 40, 2-((2S)-2-(6-Methoxy(2-naphthyl))propanoyloxy)ethyl 3-(nitrooxy)-propyl ethane-1,2-dioate]
22 | 108 to 115 | – | COc1ccc2cc([C@H](C)C(=O)OCCN(C)C(=O)c3ccc(CO[N+](=O)[O-])cc3)ccc2c1 [Example 45, 2-(N-Methyl(4-((nitrooxy)methyl)phenyl)carbonylamino)ethyl (2S)-2-(6-methoxy(2-naphthyl))propanoate]

Row | SMILES | melting point [°C] | Relative Activity Gastric Lesion [1]
23 | COc1ccc2cc([C@H](C)C(=O)OCC(CO[N+](=O)[O-])(CO[N+](=O)[O-])[N+](=O)[O-])ccc2c1 [Example 13, 2-Nitro-3-(nitrooxy)-2-((nitrooxy)methyl)propyl (2S)-2-(6-methoxy(2-naphthyl))propanoate] | 69 to 71 | 0.55
24 | COc1ccc2cc([C@H](C)C(=O)OC[C@@H](CO[N+](=O)[O-])O[N+](=O)[O-])ccc2c1 [Example 27c, (2S)-2,3-Bis(nitrooxy)propyl (2S)-2-(6-methoxy(2-naphthyl))propanoate] | – | 0.20
